The source of these data is US20220402862A1 (Intellia Therapeutics, Inc., priority 2019, published 2022).

Where “and” joins values, the source holds several entries; their conditions need not be identical. Equal values may be shown once.

Series [1] can be described thus: pKa measurement of unformulated amine lipid (fluorescence, method of Jayaraman et al.). In kind it is physicochemical. The settings on record: 100 μM in 0.1 M phosphate buffer, pH 2.0-12.0. Here is the method:
The pKa of each amine lipid was determined according to the method in Jayaraman, et al. (Angewandte Chemie, 2012) with the following adaptations. […] Lipid was diluted to 100 μM in 0.1 M phosphate buffer (Boston Bioproducts) where the pH ranged from 2.0-12.0. Fluorescence intensity was measured using excitation and emission wavelengths of 321 nm and 448 nm.

Series [2] is described as follows: RNA encapsulation efficiency of LNPs (Ribogreen fluorescence assay). The settings on record: LNP, sg:mRNA 1:1, N/P about 6, amine lipid/DSPC/cholesterol/PEG-2k-DMG 50/9/38/3; Table 2, Experiments 2-20. It counts as physicochemical. Put shortly: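 LNPs were diluted in 1× TE with 0.2% Triton X-100 (total RNA) or without it (free RNA), stained with RiboGreen for ~10 min at room temperature in the dark, and read at Ex 488/Em 525 nm against standard curves of the starting RNA. Encapsulation efficiency = (Total − Free)/Total.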

Series [3] is described as follows: Dynamic light scattering of LNPs: Z-average diameter, number average diameter, PDI. In kind it is physicochemical. The settings on record: LNP, sg:mRNA 1:1, N/P about 6, 50/9/38/3; Table 2, Experiments 2-20. Put shortly: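 LNP samples were diluted in PBS and measured by DLS to give intensity-based Z-average diameter, number average diameter and polydispersity index. PDI describes size spread around the mean, with zero meaning a uniform population.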

The test system of series [4] is Transthyretin (TTR). Kind of series: Serum TTR ELISA in mice after LNP dosing. In kind it is in vivo, CD-1 female mice. The settings on record: guide G282 experiments; for Serum TTR % TSS: mouse serum TTR relative to TSS control; for Serum TTR: mouse serum, ELISA. Put shortly:
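Female CD-1 mice, 6–10 weeks, given LNPs by tail-vein injection (~10 mL/kg), 0.1 mg/kg unless noted; serum taken at day 6 or 7 by cardiac puncture. Total mouse TTR by ELISA on sera diluted 10,000-fold (0.1 mg/kg) or 10,000- and 2,500-fold (0.3 mg/kg).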

The pKa is the pH at which an ionisable group is half protonated. Read a low pKa as a stronger acid or weaker base. As to `CCCCCCCCCC(CC)OC(=O)CCCCCCCC(=O)OCC(COC(=O)CCC(OCCCCCCCC)OCCCCCCCC)COC(=O)OCCCN(CC)CC` (stereo not shown) [Compound 95, 1-(3-((4,4-bis(octyloxy)butanoyl)oxy)-2-((((3-(diethylamino)propoxy)carbonyl)oxy)methyl)propyl) 9-(dodecan-3-yl) nonanedioate], the pKa in series [1] was 6.14. In series [2], the “Encapsulation (%)” value amounted to 99%. In series [3], the “Number mean (nm)” value came to 74.5 nm, the PDI was 0.029 and the “Z-avg (nm)” value is on record as 91.1 nm. In addition, in series [4], the “Serum TTR % TSS” value was 54% and the “Serum TTR” value is 408 µg/mL.

The compound `CCCCCC/C=C\COC(=O)CCCCCC(=O)OCC(COC(=O)CCC(OCCCCCCCC)OCCCCCCCC)COC(=O)OCCCN(CC)CC` (stereo not shown) [Compound 55, (Z)-1-(3-((4,4-bis(octyloxy)butanoyl)oxy)-2-((((3-(diethylamino)propoxy)carbonyl)oxy)methyl)propyl) 7-(non-2-en-1-yl) heptanedioate] came in with a pKa in series [1] of 6.84. For the same compound, the “Encapsulation (%)” value in series [2] is 96% and 92%. Also, in series [3], the “Number mean (nm)” value was 79.46 nm and 90.16 nm; the PDI was 0.048 and 0.039; the “Z-avg (nm)” value was 101 nm and 113.2 nm. Further, in series [4], the “Serum TTR % TSS” value is recorded as 51% and the “Serum TTR” value was 442 µg/mL.

Compound `CCCCCCCCCCOC(=O)CCCCCCCC(=O)OCC(COC(=O)CCCCCC(=O)OC(CCCCCCCC)CCCCCCCC)COC(=O)OCCC1CCCN1C` (stereo not shown) [Compound 80, 1-decyl 9-(3-((7-(heptadecan-9-yloxy)-7-oxoheptanoyl)oxy)-2-((((2-(1-methylpyrrolidin-2-yl)ethoxy)carbonyl)oxy)methyl)propyl) nonanedioate] registered a pKa in series [1] of 6.21. Also, the “Encapsulation (%)” value in series [2] was 98%. In series [3], the “Number mean (nm)” value amounted to 87.3 nm, the PDI stood at 0.016 and the “Z-avg (nm)” value is given as 105.8 nm. In series [4], the “Serum TTR % TSS” value is given as 116% and the “Serum TTR” value stood at 873 µg/mL.

Compound `CCCCCCCCCCCCCCOC(=O)CCCCCCCC(=O)OCC(COC(=O)CCC(OCCCCCCCC)OCCCCCCCC)COC(=O)OCCCN(CC)CC` (stereo not shown) [Compound 93, 1-(3-((4,4-bis(octyloxy)butanoyl)oxy)-2-((((3-(diethylamino)propoxy)carbonyl)oxy)methyl)propyl) 9-tetradecyl nonanedioate] displayed a pKa in series [1] of 6.15. In addition, the “Encapsulation (%)” value in series [2] was determined as 98%. Further, in series [3], the “Number mean (nm)” value is given as 78.73 nm, the PDI is reported as 0.004 and the “Z-avg (nm)” value is 95.19 nm. Moreover, in series [4], the “Serum TTR % TSS” value is listed as 88% and the “Serum TTR” value is 669 µg/mL.

Take `CCCCCCCCCCOC(=O)CCCCCCCC(=O)OCC(COC(=O)CCCC(=O)OC(CCCCCCCC)CCCCCCCC)COC(=O)OCCCN(CC)CC` (stereo not shown) [Compound 77, 1-decyl 9-(3-(((3-(diethylamino)propoxy)carbonyl)oxy)-2-(((5-(heptadecan-9-yloxy)-5-oxopentanoyl)oxy)methyl)propyl) nonanedioate]: in series [1], the pKa turned out to be 6.16. In addition, the “Encapsulation (%)” value in series [2] turned out to be 99%. Also, in series [3], the “Number mean (nm)” value is 85.4 nm, the PDI came to 0.006 and the “Z-avg (nm)” value was determined as 101.8 nm. In addition, in series [4], the “Serum TTR % TSS” value was 53% and the “Serum TTR” value stood at 478 µg/mL.

Compound `CCCCC/C=C\C/C=C\CCCCCCCC(=O)OCC(COC(=O)CCCCN(CC)CC)COC(=O)CCC(OCCCCCCCC)OCCCCCCCC` (stereo not shown) [Compound 28, 3-((4,4-bis(octyloxy)butanoyl)oxy)-2-(((5-(diethylamino)pentanoyl)oxy)methyl)propyl (9Z,12Z)-octadeca-9,12-dienoate] yielded a pKa in series [1] of 7.3. Besides, the “Encapsulation (%)” value in series [2] came to 98%. Further, in series [3], the “Number mean (nm)” value worked out at 68 nm, the PDI is 0.010 and the “Z-avg (nm)” value is on record as 83 nm. Besides, in series [4], the “Serum TTR % TSS” value is reported as 73% and the “Serum TTR” value amounted to 661 µg/mL.

Take `CCCCCCCCCCOC(=O)CCCCCCCCCCCC(=O)OCC(COC(=O)CCC(OCCCCCCCC)OCCCCCCCC)COC(=O)OCCCN(CC)CC` (stereo not shown) [Compound 91, 1-(3-((4,4-bis(octyloxy)butanoyl)oxy)-2-((((3-(diethylamino)propoxy)carbonyl)oxy)methyl)propyl) 13-decyl tridecanedioate]: in series [1], the pKa was 6.08. In addition, the “Encapsulation (%)” value in series [2] came out at 99%. For the same compound, in series [3], the “Number mean (nm)” value was 75.67 nm, the PDI is recorded as 0.028 and the “Z-avg (nm)” value is recorded as 93.13 nm. In series [4], the “Serum TTR % TSS” value was 84% and the “Serum TTR” value amounted to 633 µg/mL.

Take `CCCCC/C=C\C/C=C\CCCCCCCC(=O)OCC(COC(=O)CCC(OCCCCCCCC)OCCCCCCCC)COC(=O)NC(C)CN(CC)CC` (stereo not shown) [Compound 44, 3-((4,4-bis(octyloxy)butanoyl)oxy)-2-((((1-(diethylamino)propan-2-yl)carbamoyl)oxy)methyl)propyl (9Z,12Z)-octadeca-9,12-dienoate]: the pKa in series [1] stood at 6.1. For the same compound, in series [2], the “Encapsulation (%)” value is on record as 91%. In series [3], the “Number mean (nm)” value amounted to 64.78 nm, the PDI amounted to 0.025 and the “Z-avg (nm)” value stood at 81.19 nm. Further, in series [4], the “Serum TTR % TSS” value turned out to be 82% and the “Serum TTR” value was 910 µg/mL.

As to `CCCCCCCCCCOC(=O)CCCCCCCC(=O)OCC(COC(=O)CCC(OCCCCCCCCC)OCCCCCCCCC)COC(=O)OCCCN(CC)CC` (stereo not shown) [Compound 79, 1-(3-((4,4-bis(nonyloxy)butanoyl)oxy)-2-((((3-(diethylamino)propoxy)carbonyl)oxy)methyl)propyl) 9-decyl nonanedioate], the pKa in series [1] came to 6.13. For the same compound, the “Encapsulation (%)” value in series [2] was 99%. For the same compound, in series [3], the “Number mean (nm)” value is recorded as 83.64 nm, the PDI is 0.019 and the “Z-avg (nm)” value amounted to 99.24 nm. Further, in series [4], the “Serum TTR % TSS” value worked out at 39% and the “Serum TTR” value was 351 µg/mL.

For the compound `CCCCC/C=C\C/C=C\CCCCCCCC(=O)OCC(COC(=O)CCC(OCCCCCCCC)OCCCCCCCC)COC(=O)C1(C)CCN(C)CC1` (stereo not shown) [Compound 32, 3-((4,4-bis(octyloxy)butanoyl)oxy)-2-((((9Z,12Z)-octadeca-9,12-dienoyl)oxy)methyl)propyl 1,4-dimethylpiperidine-4-carboxylate], the pKa in series [1] is 7.32. For the same compound, the “Encapsulation (%)” value in series [2] came out at 99%. In series [3], the “Number mean (nm)” value came to 61 nm, the PDI amounted to 0.040 and the “Z-avg (nm)” value turned out to be 77 nm. Besides, in series [4], the “Serum TTR % TSS” value stood at 43% and the “Serum TTR” value worked out at 388 µg/mL.

Turning to `CCCCCC/C=C\COC(=O)CCCCCCCC(=O)OCC(COC(=O)CCCC(=O)OC(CCCCCCCC)CCCCCCCC)COC(=O)OCCCN(CC)CC` (stereo not shown) [Compound 86, (Z)-1-(3-(((3-(diethylamino)propoxy)carbonyl)oxy)-2-(((5-(heptadecan-9-yloxy)-5-oxopentanoyl)oxy)methyl)propyl) 9-(non-2-en-1-yl) nonanedioate], in series [1], the pKa turned out to be 6.16. Further, the “Encapsulation (%)” value in series [2] is reported as 98%. In addition, in series [3], the “Number mean (nm)” value is listed as 81.23 nm, the PDI is on record as 0.016 and the “Z-avg (nm)” value is 99.01 nm. Besides, in series [4], the “Serum TTR % TSS” value is given as 64% and the “Serum TTR” value came out at 582 µg/mL.

On to `CCCCC/C=C\C/C=C\CCCCCCCC(=O)OCC(COC(=O)CCC(OCCCCCCCC)OCCCCCCCC)COC(=O)NC1CCCN(C)C1` (stereo not shown) [Compound 42, 3-((4,4-bis(octyloxy)butanoyl)oxy)-2-((((1-methylpiperidin-3-yl)carbamoyl)oxy)methyl)propyl (9Z,12Z)-octadeca-9,12-dienoate], for which the pKa in series [1] amounted to 6.9. Also, the “Encapsulation (%)” value in series [2] is reported as 99%. In series [3], the “Number mean (nm)” value is 58.66 nm, the PDI amounted to 0.027 and the “Z-avg (nm)” value worked out at 74.03 nm. Moreover, in series [4], the “Serum TTR % TSS” value is on record as 81% and the “Serum TTR” value was determined as 902 µg/mL.

As to `CCCCCCCCCCOC(=O)CCCCCCCC(=O)OCC(COC(=O)CCC(OCCCCCCCC)OCCCCCCCC)COC(=O)OCC1CCCN(C)C1` (stereo not shown) [Compound 71, 1-(3-((4,4-bis(octyloxy)butanoyl)oxy)-2-(((((1-methylpiperidin-3-yl)methoxy)carbonyl)oxy)methyl)propyl) 9-decyl nonanedioate], the pKa in series [1] was determined as 6.44. Besides, the “Encapsulation (%)” value in series [2] is reported as 99%. Besides, in series [3], the “Number mean (nm)” value was 76.95 nm, the PDI is on record as 0.035 and the “Z-avg (nm)” value came out at 95.57 nm. Besides, in series [4], the “Serum TTR % TSS” value was 50% and the “Serum TTR” value is 462 µg/mL.
